Experimental data taken from patent publication US20220362279A1, “USE OF OLIGONUCLEOTIDES FOR THE TREATMENT AND PREVENTION OF PAIN” (CONSEJO NACIONAL DE INVESTIGACIONES CIENTÍFICAS Y TÉCNICAS, priority 2018, published 2022).
Where a name gives a salt, the structure may show the parent alone.

Legend:
[1] = tested on: rats with postsurgical pain (plantar incision); experiment: Opioid sparing: morphine in VEH- or IMT504-pre-treated rats with plantar incision, mechanical withdrawal threshold; type: in vivo, rat; conditions: for effect on withdrawal thresholds: VEH-pre-treated injured rats, 6 h and 1 day after injury
Description: In all experiments, the oligodeoxynucleotide (ODN) IMT504, with sequence 5′-[…]-3′ (SEQ ID No 1) was used. The HPLC-grade phosphorothioate ODN (Biosynthesis Inc., Lewisville, Tex., USA) was suspended in sterile saline solution (VEH, 0.9% NaCl; 20 mg/ml; storage concentration) and assayed for LPS contamination. Working concentration doses (6 mg/kg) were obtained by additional dissolving in sterile VEH. The ODN was administered subcutaneously, at a final volume of 200-300 μl, depending on animal weight.
Experiments addressing the opioid sparing effects of IMT504 included the subcutaneous (s.c.) injection of morphine hydrochloride trihydrate (Neocalmans, 10 mg/ml, Soubeiran Chobet, Buenos Aires, Argentina) at three different concentrations (1, 3 or 10 mg/kg, dissolved in sterile distilled water).
The rat hind paw plantar incision model of postoperative pain was used as previously described [Brennan, T. J., E. P. Vandermeulen, and G. F. Gebhart, Characterization of a rat model of incisional pain. Pain, 1996. 64(3): p. 493-501. Briefly, rats were anesthetized using isoflurane (5% induction, 2.5% maintenance, 0.8 l/min O2 flow rate; Piramal Healthcare, UK) and the plantar aspect of the right hind paw was disinfected with povidone iodine. A 1.0-cm longitudinal incision was made 0.5 cm from the end of the heel. The underlying flexor muscle was also incised longitudinally, allowing the muscle origin and insertion to remain intact. After hemostasis by gentle pressure, the skin was closed with sutures of 5-0 nylon.
Rats were divided into injured rats receiving IMT504 (6 mg/kg, dissolved in VEH) or VEH alone, 48h and 24 h prior to surgery. These groups were further subdivided into: 1) Rats followed during 3 days after the injury (n=6 per group), for assessment of pain-like behavior after the co-administration of morphine dissolved in injectable water (vehicle) at different doses, 6 and 24 h after injury; 2) Rats followed during 3 days after the injury (n=6 per group), for assessment of pain-like behavior after the co-administration of injectable water (vehicle) alone, 6 and 24 h after injury; 3) Rats followed during 21 days (n=8), for analysis of the administration of naloxone, 3 days after injury.
Mechanical withdrawal thresholds were assessed by using von Frey nylon monofilaments of different bending forces (1.4, 2, 6, 8, 10, 15 and 26 g; Stoelting Inc., Wooddale, USA) and the modified up-down method of Dixon, as described by Chaplan and cols. (Chaplan, S. R., et al., Quantitative assessment of tactile allodynia in the rat paw. J Neurosci Methods, 1994. 53(1): p. 55-63) , to establish the 50% withdrawal threshold. Results were obtained using the formula: 50% g threshold=[…], where Xf=value (in log units) of the final von Frey hair used; k=tabular value for the pattern of positive/negative responses; and […] difference (in log units) between stimuli. Mechanical withdrawal thresholds were tested 48 h before surgery (basal responses), and 6 h, 1, 3, 7, 14 and 21 days after injury.
A dose-response experiment to evaluate the effect of the s.c. administration of morphine at different doses (10, 3 and 1 mg/kg), 6 h or 1 day after injury, in VEH- or IMT504-treated rats (time-points were chosen based on the fact that a certain degree of mechanical withdrawal threshold alterations was still present in IMT504-treated rats was done, which allowed to test if within this therapeutic window, it was possible to fully revert pain-like behavior using smaller morphine doses). […]

[2] = tested on: rats with postsurgical pain (plantar incision); experiment: Naloxone challenge in IMT504-pre-treated rats with plantar incision, mechanical withdrawal threshold; type: in vivo, rat; conditions: IMT504-treated injured rats; naloxone 2 mg/kg i.p. on day 3 after injury
Description: In all experiments, the oligodeoxynucleotide (ODN) IMT504, with sequence 5′-[sequence]-3′ (SEQ ID No 1) was used. The HPLC-grade phosphorothioate ODN (Biosynthesis Inc., Lewisville, Tex., USA) was suspended in sterile saline solution (VEH, 0.9% NaCl; 20 mg/ml; storage concentration) and assayed for LPS contamination. Working concentration doses (6 mg/kg) were obtained by additional dissolving in sterile VEH. The ODN was administered subcutaneously, at a final volume of 200-300 μl, depending on animal weight.
A group of rats also received an intraperitoneal (i.p.) injection of naloxone hydrochloride (Narxona 0.4 mg/ml; Scott-Cassara, Bs. As., Argentina), at a dose of 2 mg/kg, in order to test if the effect of IMT504 could be blocked by the pan-opioid receptor antagonist.
The rat hind paw plantar incision model of postoperative pain was used as previously described [Brennan, T. J., E. P. Vandermeulen, and G. F. Gebhart, Characterization of a rat model of incisional pain. […] Briefly, rats were anesthetized using isoflurane (5% induction, 2.5% maintenance, 0.8 l/min O2 flow rate; Piramal Healthcare, UK) and the plantar aspect of the right hind paw was disinfected with povidone iodine. A 1.0-cm longitudinal incision was made 0.5 cm from the end of the heel. The underlying flexor muscle was also incised longitudinally, allowing the muscle origin and insertion to remain intact. After hemostasis by gentle pressure, the skin was closed with sutures of 5-0 nylon.
Rats were divided into injured rats receiving IMT504 (6 mg/kg, dissolved in VEH) or VEH alone, 48h and 24 h prior to surgery. […]
Mechanical withdrawal thresholds were assessed by using von Frey nylon monofilaments of different bending forces (1.4, 2, 6, 8, 10, 15 and 26 g; Stoelting Inc., Wooddale, USA) and the modified up-down method of Dixon, as described by Chaplan and cols. (Chaplan, S. R., et al., Quantitative assessment of tactile allodynia in the rat paw. J Neurosci Methods, 1994. 53(1): p. 55-63) , to establish the 50% withdrawal threshold. […]

SMILES	time after injection free of pain-like behavior ([1]; VEH rats receiving 10 mg morphine) [min]	time after administration with fully reversed pain-like behavior ([1]; VEH rats receiving 1 or 3 mg morphine, both time-points) [min]	effect on withdrawal thresholds ([1]; morphine 10 mg/kg s.c.)	effect on withdrawal thresholds ([1]; morphine 3 and 1 mg/kg s.c.)	withdrawal threshold 15 and 30 min after naloxone [2]
CN1CC[C@]23c4c5ccc(O)c4O[C@H]2[C@@H](O)C=C[C@H]3[C@H]1C5.Cl.O.O.O [morphine, morphine hydrochloride trihydrate, reference compound]	90 to 180	60	very effective in increasing withdrawal thresholds	milder and comparable effects	–
C=CCN1CC[C@]23c4c5ccc(O)c4O[C@H]2C(=O)CC[C@@]3(O)[C@H]1C5 [naloxone, naloxone hydrochloride, reference compound]	–	–	–	–	drastic and significant decrease in their withdrawal threshold
